Source: PubChem BioAssay (NCI)
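Cells were grown in 96-well plates and exposed to each compound for 48 hours at five concentrations; endpoints were interpolated linearly between bracketing concentrations, or set to the highest concentration if not reached. GI50 is the concentration that inhibits growth by half. TGI: concentration producing complete growth inhibition.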

Columns and labels:
Test in all cases: NCI anticancer screen, dose series, 48 h
MCF7 breast = test system: MCF7 breast
CAKI-1 renal = test system: CAKI-1 renal
ACHN renal = test system: ACHN renal
U251 CNS = test system: U251 CNS
MDA-MB-231 breast = test system: MDA-MB-231 breast
K-562 leukemia = test system: K-562 leukemia
OVCAR-8 ovarian = test system: OVCAR-8 ovarian
SF-295 CNS = test system: SF-295 CNS
MOLT-4 leukemia = test system: MOLT-4 leukemia
RXF 393 renal = test system: RXF 393 renal
HT29 colon = test system: HT29 colon
MALME-3M melanoma = test system: MALME-3M melanoma
KM12 colon = test system: KM12 colon
HOP-92 NSCLC = test system: HOP-92 NSCLC
HCC-2998 colon = test system: HCC-2998 colon
SK-MEL-5 melanoma = test system: SK-MEL-5 melanoma
IGROV1 ovarian = test system: IGROV1 ovarian
UO-31 renal = test system: UO-31 renal
TK-10 renal = test system: TK-10 renal
CCRF-CEM leukemia = test system: CCRF-CEM leukemia
T-47D breast = test system: T-47D breast
SW-620 colon = test system: SW-620 colon
UACC-257 melanoma = test system: UACC-257 melanoma
UACC-62 melanoma = test system: UACC-62 melanoma
NCI-H460 lung = test system: NCI-H460 lung
OVCAR-4 ovarian = test system: OVCAR-4 ovarian
DU-145 prostate = test system: DU-145 prostate
NCI-H522 lung = test system: NCI-H522 lung
SN12C renal = test system: SN12C renal
HL-60(TB) leukemia = test system: HL-60(TB) leukemia
HS 578T breast = test system: HS 578T breast
OVCAR-5 ovarian = test system: OVCAR-5 ovarian
SK-MEL-2 melanoma = test system: SK-MEL-2 melanoma
NCI/ADR-RES ovarian = test system: NCI/ADR-RES ovarian
HOP-62 NSCLC = test system: HOP-62 NSCLC
NCI-H23 lung = test system: NCI-H23 lung
EKVX NSCLC = test system: EKVX NSCLC
RPMI-8226 leukemia = test system: RPMI-8226 leukemia
SNB-19 CNS = test system: SNB-19 CNS
SF-539 CNS = test system: SF-539 CNS
HCT-15 colon = test system: HCT-15 colon
SF-268 CNS = test system: SF-268 CNS
SK-OV-3 ovarian = test system: SK-OV-3 ovarian
PC-3 prostate = test system: PC-3 prostate
LOX IMVI melanoma = test system: LOX IMVI melanoma
MDA-MB-435 = test system: MDA-MB-435
OVCAR-3 ovarian = test system: OVCAR-3 ovarian

Compound: COc1ccc2c3c([nH]c2c1)C(=O)c1nc(C)ccc1C3=O
- GI50 (MCF7 breast): 1.98 µM
- TGI (MCF7 breast): > 100 µM
- GI50 (CAKI-1 renal): 3.82 µM
- TGI (CAKI-1 renal): > 100 µM
- GI50 (ACHN renal): 2.55 µM
- TGI (ACHN renal): > 100 µM
- GI50 (U251 CNS): 4.85 µM
- TGI (U251 CNS): > 100 µM
- GI50 (MDA-MB-231 breast): 3.33 µM
- TGI (MDA-MB-231 breast): > 100 µM
- GI50 (K-562 leukemia): 3.31 µM
- TGI (K-562 leukemia): > 100 µM
- GI50 (OVCAR-8 ovarian): 3.35 µM
- TGI (OVCAR-8 ovarian): > 100 µM
- GI50 (SF-295 CNS): 1.21 µM
- TGI (SF-295 CNS): 2.64 µM
- GI50 (MOLT-4 leukemia): 2.63 µM
- TGI (MOLT-4 leukemia): > 100 µM
- GI50 (RXF 393 renal): 7.3 µM
- TGI (RXF 393 renal): > 100 µM
- GI50 (HT29 colon): 3.88 µM
- TGI (HT29 colon): > 100 µM
- GI50 (MALME-3M melanoma): 0.331 µM
- TGI (MALME-3M melanoma): 1.65 µM
- GI50 (KM12 colon): 4.95 µM
- TGI (KM12 colon): > 100 µM
- GI50 (HOP-92 NSCLC): 20.7 µM
- TGI (HOP-92 NSCLC): > 100 µM
- GI50 (HCC-2998 colon): 3.81 µM
- TGI (HCC-2998 colon): > 100 µM
- GI50 (SK-MEL-5 melanoma): 0.792 µM
- TGI (SK-MEL-5 melanoma): 2.2 µM
- GI50 (IGROV1 ovarian): 0.326 µM
- TGI (IGROV1 ovarian): > 100 µM
- GI50 (UO-31 renal): 1.03 µM
- TGI (UO-31 renal): > 100 µM
- GI50 (TK-10 renal): > 100 µM
- TGI (TK-10 renal): > 100 µM
- GI50 (CCRF-CEM leukemia): 3.69 µM
- TGI (CCRF-CEM leukemia): > 100 µM
- GI50 (T-47D breast): 2.65 µM
- TGI (T-47D breast): > 100 µM
- GI50 (SW-620 colon): 3.66 µM
- TGI (SW-620 colon): > 100 µM
- GI50 (UACC-257 melanoma): 1.48 µM
- TGI (UACC-257 melanoma): 5.41 µM
- GI50 (UACC-62 melanoma): 1.4 µM
- TGI (UACC-62 melanoma): 3.08 µM
- GI50 (NCI-H460 lung): 1.02 µM
- TGI (NCI-H460 lung): 3.28 µM
- GI50 (OVCAR-4 ovarian): 2.06 µM
- TGI (OVCAR-4 ovarian): > 100 µM
- GI50 (DU-145 prostate): 1.7 µM
- TGI (DU-145 prostate): 3.24 µM
- GI50 (NCI-H522 lung): 3.83 µM
- TGI (NCI-H522 lung): > 100 µM
- GI50 (SN12C renal): 3.24 µM
- TGI (SN12C renal): > 100 µM
- GI50 (HL-60(TB) leukemia): 2.79 µM
- TGI (HL-60(TB) leukemia): > 100 µM
- GI50 (HS 578T breast): 13.6 µM
- TGI (HS 578T breast): > 100 µM
- GI50 (OVCAR-5 ovarian): 4.42 µM
- TGI (OVCAR-5 ovarian): > 100 µM
- GI50 (SK-MEL-2 melanoma): 7.04 µM
- TGI (SK-MEL-2 melanoma): > 100 µM
- GI50 (NCI/ADR-RES ovarian): 2.75 µM
- TGI (NCI/ADR-RES ovarian): > 100 µM
- GI50 (HOP-62 NSCLC): 3.5 µM
- TGI (HOP-62 NSCLC): > 100 µM
- GI50 (NCI-H23 lung): 1.08 µM
- TGI (NCI-H23 lung): 4.07 µM
- GI50 (EKVX NSCLC): 2.68 µM
- TGI (EKVX NSCLC): > 100 µM
- GI50 (RPMI-8226 leukemia): 2.91 µM
- TGI (RPMI-8226 leukemia): > 100 µM
- GI50 (SNB-19 CNS): 2.61 µM
- TGI (SNB-19 CNS): > 100 µM
- GI50 (SF-539 CNS): 3.75 µM
- TGI (SF-539 CNS): > 100 µM
- GI50 (HCT-15 colon): 1.94 µM
- TGI (HCT-15 colon): > 100 µM
- GI50 (SF-268 CNS): 7.8 µM
- TGI (SF-268 CNS): > 100 µM
- GI50 (SK-OV-3 ovarian): > 100 µM
- TGI (SK-OV-3 ovarian): > 100 µM
- GI50 (PC-3 prostate): 2 µM
- TGI (PC-3 prostate): > 100 µM
- GI50 (LOX IMVI melanoma): 2.24 µM
- TGI (LOX IMVI melanoma): > 100 µM
- GI50 (MDA-MB-435): 1.78 µM
- TGI (MDA-MB-435): 3.19 µM
- GI50 (OVCAR-3 ovarian): 1.62 µM
- TGI (OVCAR-3 ovarian): 7.05 µM
